Like-named read-outs stand apart in the source and are kept apart here.
How the values were obtained:
[1] = system: rHMPV-GFP (recombinant HMPV CAN97-83, MPV-GFP1); assay: HMPV antiviral assay (eGFP fluorescence in Vero E6 cells); assay type: cell-based; details: Vero C1008, 120 h, read-out: rHMPV-GFP EC50
Method: HMPV antiviral activity was evaluated using a recombinant version of HMPV CAN97-83 engineered to contain the coding sequence for enhanced green fluorescence protein (eGFP) in the 3′ end of the virus genome (MPV-GFP1, ViraTree). Vero E6 cells (ATCC #CCL-7) were seeded at a density of 12,000 cells/100 μL/well into 96-well cell plates (VENDOR) one day prior to the assay. On the day of screening, the cell culture medium was aspirated from the wells and cells were washed twice with serum-free Eagle's Modified Essential Medium (EMEM, ATCC #) containing 1% penicillin-streptomycin (Invitrogen) (SF-EMEM). Cell washes were performed by dispensing 100 μL SF-EMEM per well and immediately aspirating the wash medium from the well. Following the second wash step, serum-free OptiMEM (Invitrogen, Cat No.) (SF-OptiMEM) containing 0.5 μg/mL TPCK-Trypsin (VENDOR) and 1% penicillin-streptomycin was added to the cells at 50 μL/well. Compounds were added into the 96-well plates using a JANUS automated liquid handling system (VENDOR). Compounds were initially diluted 1:50 into an intermediate 96-well plate containing SF-OptiMEM prior to transfer to the assay plate (25 μL/well). Each of the test compounds was tested in duplicate wells at final concentrations starting from 8 μM or 2 μM using ½ stepwise dilutions for a total of 8 points. Virus infection was performed by preparing a working stock of MPV-GFP1 at a multiplicity of infection (MOI) equal to 0.05/25 μL and aliquoting 25 μL of virus inoculum to the compound and positive control wells. SF-OptiMEM was added (25 μL/well) to the appropriate wells to serve as a virus-free negative control for the assay. The final DMSO concentration of all wells is 0.5%. Plates were incubated at 32° C., 5% CO2 for 5 days. After 5 days incubation, eGFP fluorescence intensity was measured at […] using a Spectramax i3X plate reader (VENDOR). Percent viral inhibition was calculated using the following equation: y=[[…]]×100 Where XQ is the fluorescence intensity measured in a well containing recombinant MPV-GFP1-infected, compound-treated cells and XP is the average fluorescence intensity measured in the wells containing untreated cells infected with recombinant virus. EC50 values were then calculated by non-linear regression using a four parameter curve logistic equation. The curve fit model employed was XLFit Dose Response One Site Model 200: y=(A+(B/(1+((x/C)^D)))) Where A is the minimum y value, B is the maximum y value, C is the log EC50 value, and D is the slope factor. The EC50 of each compound is listed in Table 2 and EC50 ranges are as follows: A<0.2 μM; B≥0.2 μM.

[2] = system: Human RSV-A (“Long” strain); assay: RSV-A assay (CPE, ATPlite readout in Hep-2 cells); assay type: cell-based; details: human respiratory syncytial virus, 120 h, Hep-2 cells, MOI 0.1, 5-day incubation, ATPlite, read-out: Human RSV-A (“Long” strain) EC50
From the text: Hep-2 cells, (originally derived from tumors grown in irradiated-cortisonised weanling rats that had been injected with epidermoid carcinoma tissue from a person's larynx, but later found to be indistinguishable from HeLa cells by PCR DNA analysis), were used for the culturing of genotype A, “Long” strain RSV. Flasks were inoculated with RSV and viral stocks were collected once cytopathic effect (CPE) was greater than 90%. Viral stocks in 25% sucrose media were snap frozen using liquid nitrogen to increase viral stability. Viral stock titers were quantified by tissue culture infectious dose 50% (TCID50) using 8,000 cells per well and 3-fold viral dilutions across a 96-well plate, cultured for 4 days. Viral stock titers were also quantified by a plaque forming unit assay, as described elsewhere.
Following extensive parameter testing, the final assay is run as follows: Hep-2 cells are seeded into the inner 60 wells of a 96-well plate at 8,000 cells per well in a volume of 50 μL using Growth Media (DMEM without phenol red, 1% L-Glut, 1% Penn/Strep, 1% nonessential amino acids, 10% heat-inactivated FBS). 2-fold serial dilutions of control and test compounds are added to the wells in duplicate in a total volume of 25 μL. Viral stock is then added to the wells at a multiplicity of infection (MOI) of 0.1 in a volume of 25 μL, bringing the total volume of each well to 100 μL. The MOI is calculated using the PFU/mL, or TCID50 if unavailable. Each 96-well plate has a control column of 6 wells with cells and virus but no compound (negative control, max CPE), a column with cells but no compound or virus (positive control, minimum CPE), and a column with no cells or virus or compound (background plate/reagent control). The control wells with cells but no virus are given an additional […], of growth media containing an equal quantity of sucrose as those wells receiving the viral stock in order to keep consistent in media and volume conditions. The outer wells of the plate are filled with 125 μL of moat media (DMEM, 1% Penn/Strep) to act as a thermal and evaporative moat around the test wells. Following a 5-day incubation period, the plates are read using ATPlite (50 uL added per well), which quantifies the amount of ATP (a measure of cell health) present in each well. Assay plates are read using the Envision luminometer. […] EC50 ranges are as follows: A<0.2 μM; B≥0.2 μM.

[3] = system: HRSV; details: high risk infants, prophylactic use; cited from earlier work

**Q.** What does the source list for COc1cc(C(=O)NC[C@](C)(O)c2cc3c(c(-c4ccc(F)c(F)c4)n2)OC[C@@]3(N)C(F)(F)F)ccc1OC1CC1 [Example 22, N—((S)-2-((R)-3-amino-7-(3,4-difluorophenyl)-3-(trifluoromethyl)-2,3-dihydrofuro[2,3-c]pyridin-5-yl)-2-hydroxypropyl)-4-cyclopropoxy-3-methoxybenzamide]?
**A.** EC50 [1]: < 200 nM; EC50 [2]: < 200 nM

**Q.** With COc1cc(C(=O)NC[C@](O)(c2cc3c(c(-c4ccc(F)c(F)c4)n2)OC[C@@]3(N)C(F)(F)F)C2CC2)ccc1OC1CC1 [Example 23, N—((S)-2-((R)-3-amino-7-(3,4-difluorophenyl)-3-(trifluoromethyl)-2,3-dihydrofuro[2,3-c]pyridin-5-yl)-2-cyclopropyl-2-hydroxyethyl)-4-cyclopropoxy-3-methoxybenzamide] as the compound, how does the EC50 [1] read?
**A.** Its EC50 is < 200 nM.

**Q.** And the EC50 [2]?
**A.** The EC50 was < 200 nM.

**Q.** Which results are given for COc1cc(C(=O)NC[C@](C)(O)c2cc3c(c(-c4ccc(F)c(Cl)c4)n2)OC[C@@]3(N)C(F)(F)F)ccc1OC1CC1 [Example 24, N—((S)-2-((R)-3-amino-7-(3-chloro-4-fluorophenyl)-3-(trifluoromethyl)-2,3-dihydrofuro[2,3-c]pyridin-5-yl)-2-hydroxypropyl)-4-cyclopropoxy-3-methoxybenzamide]?
**A.** EC50 [1]: < 200 nM; EC50 [2]: < 200 nM

**Q.** Which EC50 [1] does the source give for COc1cc(C(=O)NC[C@](O)(c2cc3c(c(-c4ccc(F)c(Cl)c4)n2)OC[C@@]3(N)C(F)(F)F)C2CC2)ccc1OC1CC1 [Example 25, N—((S)-2-((R)-3-amino-7-(3-chloro-4-fluorophenyl)-3-(trifluoromethyl)-2,3-dihydrofuro[2,3-c]pyridin-5-yl)-2-cyclopropyl-2-hydroxyethyl)-4-cyclopropoxy-3-methoxybenzamide] here?
**A.** Its EC50 is < 200 nM.

**Q.** And the EC50 [2]?
**A.** The EC50 was < 200 nM.

**Q.** Which EC50 [1] does the source give for C[C@](O)(CNC(=O)c1ccc(OC2CC2)c(OC2CC2)c1)c1cc2c(c(-c3ccc(F)c(F)c3)n1)OC[C@@]2(N)C(F)(F)F [Example 26, N—((S)-2-((R)-3-amino-7-(3,4-difluorophenyl)-3-(trifluoromethyl)-2,3-dihydrofuro[2,3-c]pyridin-5-yl)-2-hydroxypropyl)-3,4-dicyclopropoxybenzamide] here?
**A.** The EC50 was < 200 nM.

**Q.** What about the EC50 [2] of the same compound?
**A.** Its EC50 is < 200 nM.

**Q.** What does the source list for N[C@@]1(C(F)(F)F)COc2c1cc([C@@](O)(CNC(=O)c1ccc(OC3CC3)c(OC3CC3)c1)C1CC1)nc2-c1ccc(F)c(F)c1 [Example 27, N—((S)-2-((R)-3-amino-7-(3,4-difluorophenyl)-3-(trifluoromethyl)-2,3-dihydrofuro[2,3-c]pyridin-5-yl)-2-cyclopropyl-2-hydroxyethyl)-3,4-dicyclopropoxybenzamide]?
**A.** EC50 [1]: < 200 nM; EC50 [2]: < 200 nM

**Q.** For C[C@](O)(CNC(=O)c1ccc(OC2CC2)c(OC2CC2)c1)c1cc2c(c(-c3ccc(F)c(Cl)c3)n1)OC[C@@]2(N)C(F)(F)F [Example 28, N—((S)-2-((R)-3-amino-7-(3-chloro-4-fluorophenyl)-3-(trifluoromethyl)-2,3-dihydrofuro[2,3-c]pyridin-5-yl)-2-hydroxypropyl)-3,4-dicyclopropoxybenzamide], which EC50 [1] is on record?
**A.** The EC50 was < 200 nM.

**Q.** And the EC50 [2]?
**A.** The EC50 was < 200 nM.

**Q.** For N[C@@]1(C(F)(F)F)COc2c1cc([C@@](O)(CNC(=O)c1ccc(OC3CC3)c(OC3CC3)c1)C1CC1)nc2-c1ccc(F)c(Cl)c1 [Example 29], which EC50 [1] is on record?
**A.** The EC50 was > 200 nM.

**Q.** And the EC50 ([2]; in Homo sapiens)?
**A.** The EC50 was < 200 nM.

**Q.** Which EC50 [1] does the source give for N[C@@]1(C(F)(F)F)COc2c1cc([C@@](O)(CNC(=O)c1cc(OC3CC3)c3ncccc3c1)C1CC1)nc2-c1ccc(F)c(Cl)c1 [Example 30, N—((S)-2-((R)-3-amino-7-(3-chloro-4-fluorophenyl)-3-(trifluoromethyl)-2,3-dihydrofuro[2,3-c]pyridin-5-yl)-2-cyclopropyl-2-hydroxyethyl)-8-cyclopropoxyquinoline-6-carboxamide] here?
**A.** Its EC50 is > 200 nM.

**Q.** And the EC50 [2]?
**A.** Its EC50 is < 200 nM.

**Q.** With COc1cc(C(=O)NC[C@H](O)c2cc3c(c(-c4ccc(F)cc4)n2)OC[C@@]3(N)C(F)(F)F)ccc1OC1CC1 [Example 47] as the compound, how does the EC50 [1] read?
**A.** The EC50 was > 200 nM.

**Q.** What about the EC50 [2] of the same compound?
**A.** Its EC50 is > 200 nM.

**Q.** Which results are given for COc1cc(C(=O)NCC(C)c2cc3c(c(-c4ccc(F)c(F)c4)n2)OC[C@@]3(N)C(F)(F)F)ccc1OC1CC1 (stereo partly drawn) [Example 48]?
**A.** EC50 [1]: > 200 nM; EC50 [2]: > 200 nM

**Q.** With COC[C@](O)(CNC(=O)c1ccc(OC2CC2)c(OC)c1)c1cc2c(c(-c3ccc(F)cc3)n1)OC[C@@]2(N)C(F)(F)F [Example 49, N—((S)-2-((R)-3-amino-7-(4-fluorophenyl)-3-(trifluoromethyl)-2,3-dihydrofuro[2,3-c]pyridin-5-yl)-2-hydroxy-3-methoxypropyl)-4-cyclopropoxy-3-methoxybenzamide] as the compound, how does the EC50 [1] read?
**A.** Its EC50 is > 200 nM.

**Q.** And the EC50 [2]?
**A.** The EC50 was < 200 nM.

**Q.** With COc1cc(C(=O)NC[C@@](O)(CO)c2cc3c(c(-c4ccc(F)cc4)n2)OC[C@@]3(N)C(F)(F)F)ccc1OC1CC1 [Example 51, N—((S)-2-((R)-3-amino-7-(4-fluorophenyl)-3-(trifluoromethyl)-2,3-dihydrofuro[2,3-c]pyridin-5-yl)-2,3-dihydroxypropyl)-4-cyclopropoxy-3-methoxybenzamide] as the compound, how does the EC50 [1] read?
**A.** Its EC50 is > 200 nM.

**Q.** What about the EC50 [2] of the same compound?
**A.** Its EC50 is < 200 nM.

**Q.** With N[C@@]1(C(F)(F)F)COc2c1cc([C@@](O)(CNC(=O)c1cc(OC3CC3)c3nn(C4CC4)cc3c1)C1CC1)nc2-c1ccc(F)cc1 [Example 55c, N—((S)-2-((R)-3-amino-7-(4-fluorophenyl)-3-(trifluoromethyl)-2,3-dihydrofuro[2,3-c]pyridin-5-yl)-2-cyclopropyl-2-hydroxyethyl)-7-cyclopropoxy-2-cyclopropyl-2H-indazole-5-carboxamide] as the compound, how does the EC50 [1] read?
**A.** The EC50 was < 200 nM.

**Q.** And the EC50 [2]?
**A.** Its EC50 is < 200 nM.

**Q.** With N[C@@]1(C(F)(F)F)COc2c1cc([C@@](O)(CNC(=O)c1cc(OC3CC3)c3nn(C4CC4)cc3c1)C1CC1)nc2-c1ccc(F)c(Cl)c1 [Example 55d, N—((S)-2-((R)-3-amino-7-(3-chloro-4-fluorophenyl)-3-(trifluoromethyl)-2,3-dihydrofuro[2,3-c]pyridin-5-yl)-2-cyclopropyl-2-hydroxyethyl)-7-cyclopropoxy-2-cyclopropyl-2H-indazole-5-carboxamide] as the compound, how does the EC50 [1] read?
**A.** Its EC50 is < 200 nM.

**Q.** And the EC50 [2]?
**A.** Its EC50 is < 200 nM.

**Q.** What does the source list for Cn1cc2cc(C(=O)NC[C@](O)(c3cc4c(c(-c5ccc(F)cc5)n3)OC[C@@]4(N)C(F)(F)F)C3CC3)cc(OC3CC3)c2n1 [Example 66, N—((S)-2-((R)-3-amino-7-(4-fluorophenyl)-3-(trifluoromethyl)-2,3-dihydrofuro[2,3-c]pyridin-5-yl)-2-cyclopropyl-2-hydroxyethyl)-7-cyclopropoxy-2-methyl-2H-indazole-5-carboxamide]?
**A.** EC50 [1]: < 200 nM; EC50 [2]: < 200 nM

**Q.** With Palivizumab as the compound, how does the “effective in reducing hospitalizations” value [3] read?
**A.** The value was 60%.

Source: patent US11420976B2 (priority 2020, dated 2022)
